Source: paper PMC5668678 (Biochemistry and Biophysics Reports, 2015)

Key:
[1] = test system: KCNQ1-K318M channel; assay: Patch clamp of KCNQ1 single residue mutant at Lys318, sensitivity to ChTX; assay type: cell-based, human; details: site-directed mutant, HEK293 cells, Fig. 3
[2] = test system: KCNQ1-M3 chimera channel; assay: Patch clamp of KCNQ1-M3 chimera currents; assay type: cell-based, human; details: 1 μM ChTX, HEK293 cells, turret region mutant
[3] = test system: MmKv1 channel; details: versus Kv1.3; ref [24]; cited from earlier work
[4] = test system: KCNQ1-Q321V channel; assay: Patch clamp of KCNQ1 single residue mutant at Q321, sensitivity to ChTX; assay type: cell-based, human; details: site-directed mutant, HEK293 cells, Fig. 3
[5] = test system: KCNQ1-M2 chimera channel; assay: Patch clamp of KCNQ1-M2 chimera currents; assay type: cell-based, human; details: 1 μM ChTX, HEK293 cells, filter region mutant
[6] = test system: MmKv2 channel; details: ref [24]; cited from earlier work
[7] = test system: KCNQ1-M1 channel chimera; assay: Patch clamp of KCNQ1-M1 chimera currents; assay type: cell-based, human; details: 1 μM ChTX, HEK293 cells, turret and filter region mutant

charybdotoxin [ChTX]
effect of residue Lys318 on the binding of ChTX [1]: found to affect the binding of ChTX
inhibition of KCNQ1-M3 channel currents [2]: not effectively inhibited
sensitivity of MmKv1 toward scorpion venom and ChTX, compared with Kv1.3 [3]: weaker sensitivity
effect of residue Q321 on the binding of ChTX [4]: did not affect the binding of ChTX
inhibition of KCNQ1-M2 channel currents [5]: effectively inhibited
sensitivity of MmKv2 toward scorpion venom and ChTX [6]: completely insensitive
inhibition of KCNQ1-M1 channel currents [7]: effectively inhibited
